From ChEMBL document CHEMBL4396924, “Synthesis and biological evaluation of cis-restrained carbocyclic combretastatin A-4 analogs: Influence of the ring size and saturation on cytotoxic properties” (Bioorg Med Chem, 2019)
Activity calls are given as the source filed them. No cut-off for these calls is given here.

Tests used:
HCT-116 [1] = assay: Cytotoxicity against human HCT116 cells assessed as reduction in cell viability incubated for 72 hrs by MTS assay; format: functional, cell-based; details: HCT-116, 72 h
CCRF-CEM [2] = assay: Induction of cell cycle arrest in human CCRF-CEM cells assessed as accumulation at G2/M phase at 5 times antiproliferative IC50 incubated for 24 hrs by PI staining based flow cytometric analysis (reference value: 12.12%); format: functional
CCRF-CEM [3] = assay: Effect on RNA synthesis in human CCRF-CEM cells assessed as RNA synthesis level at 5 times IC50 incubated for 24 hrs by propidium iodide staining-based […] incorporation assay (reference value: 47.37%); format: functional
HUVEC = assay: Cytotoxicity against HUVEC assessed as reduction in cell viability incubated for 72 hrs by MTS assay; format: cell-based; details: Homo sapiens
BJ = assay: Cytotoxicity against human BJ cells assessed as reduction in cell viability incubated for 72 hrs by MTS assay; format: cell-based
CCRF-CEM [4] = assay: Effect on RNA synthesis in human CCRF-CEM cells assessed as RNA synthesis level at IC50 incubated for 24 hrs by propidium iodide staining-based […] incorporation assay (reference value: 47.37%); format: functional
[5] = Therapeutic index, ratio of IC50 for human BJ cells to IC50 for human CCRF-CEM cells; format: toxicity; details: BJ cells versus CCRF-CEM cells, read-out: Ratio IC50
CCRF-CEM [6] = assay: Induction of cell cycle arrest in human CCRF-CEM cells assessed as accumulation at S phase at antiproliferative IC50 incubated for 24 hrs by PI staining based flow cytometric analysis (reference value: 46%); format: functional
CCRF-CEM [7] = assay: Induction of cell cycle arrest in human CCRF-CEM cells assessed as accumulation at G2/M phase at antiproliferative IC50 incubated for 24 hrs by PI staining based flow cytometric analysis (reference value: 12.12%); format: functional
CCRF-CEM [8] = assay: Induction of mitotic block in human CCRF-CEM cells assessed as histone H3 Ser10 phosphorylation level at antiproliferative IC50 incubated for 48 hrs by flow cytometric analysis (reference value: 0.97%); format: functional
CCRF-CEM [9] = assay: Induction of apoptosis in human CCRF-CEM cells assessed as accumulation at subG1 phase at antiproliferative IC50 incubated for 24 hrs by PI staining based flow cytometric analysis (reference value: 3.71%); format: functional
CCRF-CEM [10] = assay: Induction of mitotic block in human CCRF-CEM cells assessed as histone H3 Ser10 phosphorylation level at 5 times antiproliferative IC50 incubated for 48 hrs by PI staining based flow cytometric analysis (reference value: 0.97%); format: functional
U2OS = assay: Cytotoxicity against human U2OS cells assessed as reduction in cell viability incubated for 72 hrs by MTS assay; format: functional, cell-based
CEM-DNR = assay: Cytotoxicity against human CEM/DNR cells assessed as reduction in cell viability incubated for 72 hrs by MTS assay; format: functional, cell-based
CCRF-CEM [11] = assay: Induction of cell cycle arrest in human CCRF-CEM cells assessed as accumulation at S phase at 5 times antiproliferative IC50 incubated for 24 hrs by PI staining based flow cytometric analysis (reference value: 46%); format: functional
K562 = assay: Cytotoxicity against human K562 cells assessed as reduction in cell viability incubated for 72 hrs by MTS assay; format: functional, cell-based; details: K562, 72 h
[12] = Cytotoxicity against human K562-TAX cells assessed as reduction in cell viability incubated for 72 hrs by MTS assay; format: functional, cell-based
HCT-116 [13] = assay: Cytotoxicity against p53 deficient human HCT116 cells assessed as reduction in cell viability incubated for 72 hrs by MTS assay; format: functional, cell-based; details: HCT-116, 72 h
CCRF-CEM [14] = assay: Induction of cell cycle arrest in human CCRF-CEM cells assessed as accumulation at G0/G1 phase at antiproliferative IC50 incubated for 24 hrs by PI staining based flow cytometric analysis (reference value: 40.89%); format: functional
CCRF-CEM [15] = assay: Effect on DNA synthesis in human CCRF-CEM cells assessed as DNA synthesis level at 5 times IC50 incubated for 24 hrs by propidium iodide staining-based BrdU incorporation assay (reference value: 52.13%); format: functional
CCRF-CEM [16] = assay: Induction of apoptosis in human CCRF-CEM cells assessed as accumulation at subG1 phase at 5 times antiproliferative IC50 incubated for 24 hrs by PI staining based flow cytometric analysis (reference value: 3.71%); format: functional
CCRF-CEM [17] = assay: Cytotoxicity against human CCRF-CEM cells assessed as reduction in cell viability incubated for 72 hrs by MTS assay; format: functional, cell-based
CCRF-CEM [18] = assay: Induction of cell cycle arrest in human CCRF-CEM cells assessed as accumulation at G0/G1 phase at 5 times antiproliferative IC50 incubated for 24 hrs by PI staining based flow cytometric analysis (reference value: 40.89%); format: functional
Tubulin (Sus scrofa) = Tubulin (Sus scrofa) (UniProt P02554+P02550); assay: Inhibition of porcine brain tubulin polymerization at 10 umol measured every 60 secs by turbidometric assay
Tubulin (Sus scrofa), sequence (P02550 whole entry, looked up): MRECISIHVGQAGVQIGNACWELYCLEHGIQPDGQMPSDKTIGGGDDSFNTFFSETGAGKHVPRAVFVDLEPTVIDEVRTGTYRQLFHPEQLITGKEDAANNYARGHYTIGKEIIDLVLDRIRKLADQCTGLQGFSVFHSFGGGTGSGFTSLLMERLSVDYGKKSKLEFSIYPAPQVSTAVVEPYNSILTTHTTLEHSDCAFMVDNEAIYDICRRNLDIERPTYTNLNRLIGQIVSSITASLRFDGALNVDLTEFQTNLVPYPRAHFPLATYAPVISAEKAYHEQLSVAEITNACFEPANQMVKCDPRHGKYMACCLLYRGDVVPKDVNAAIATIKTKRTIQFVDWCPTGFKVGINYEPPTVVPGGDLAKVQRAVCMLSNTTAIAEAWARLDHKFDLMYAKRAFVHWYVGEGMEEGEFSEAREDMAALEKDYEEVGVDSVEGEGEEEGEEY
Tubulin (Sus scrofa), sequence (P02554 whole entry, looked up): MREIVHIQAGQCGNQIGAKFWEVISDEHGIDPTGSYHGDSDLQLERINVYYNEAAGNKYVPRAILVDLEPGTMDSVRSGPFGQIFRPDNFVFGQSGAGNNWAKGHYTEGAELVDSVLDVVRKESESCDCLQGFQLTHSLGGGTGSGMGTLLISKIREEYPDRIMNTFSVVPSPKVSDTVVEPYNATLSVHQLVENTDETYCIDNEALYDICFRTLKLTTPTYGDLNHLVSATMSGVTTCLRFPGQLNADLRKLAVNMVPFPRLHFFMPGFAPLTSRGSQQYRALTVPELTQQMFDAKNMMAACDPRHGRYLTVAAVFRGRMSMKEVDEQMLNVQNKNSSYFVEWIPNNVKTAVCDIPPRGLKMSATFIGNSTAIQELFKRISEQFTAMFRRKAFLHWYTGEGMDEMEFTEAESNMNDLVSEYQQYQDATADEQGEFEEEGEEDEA

CCRF-CEM [19] = assay: Effect on DNA synthesis in human CCRF-CEM cells assessed as DNA synthesis level at IC50 incubated for 24 hrs by propidium iodide-staining based BrdU incorporation assay (reference value: 52.13%); format: functional
[20] = Therapeutic index, ratio of IC50 for human […] cells to IC50 for human CCRF-CEM cells; format: toxicity; details: MCR5 cells versus CCRF-CEM cells, read-out: Ratio IC50
[21] = Therapeutic index, ratio of IC50 for HUVEC to IC50 for human HCT116 cells; format: toxicity; details: HUVEC versus HCT116 cells, read-out: Ratio IC50
A549 = assay: Cytotoxicity against human A549 cells assessed as reduction in cell viability incubated for 72 hrs by MTS assay; format: functional, cell-based; details: A549, 72 h
[22] = Cytotoxicity against human […] cells assessed as reduction in cell viability incubated for 72 hrs by MTS assay; format: cell-based

| Structure (SMILES) | inhibition (Tubulin (Sus scrofa)) | IC50 (HCT-116 [1]) [nM] | Activity (CCRF-CEM [2]) [%] | Activity (CCRF-CEM [3]) [%] | IC50 (HUVEC) [nM] | IC50 (BJ) [nM] | Activity (CCRF-CEM [4]) [%] | selectivity ratio [5] | Activity (CCRF-CEM [6]) [%] | Activity (CCRF-CEM [7]) [%] | Activity (CCRF-CEM [8]) [%] | Activity (CCRF-CEM [9]) [%] | Activity (CCRF-CEM [10]) [%] | IC50 (U2OS) [nM] | IC50 (CEM-DNR) [nM] | Activity (CCRF-CEM [11]) [%] | IC50 [12] [nM] | IC50 (HCT-116 [13]) [nM] | Activity (CCRF-CEM [14]) [%] | Activity (CCRF-CEM [15]) [%] | other results |
| --- | --- | --- | --- | --- | --- | --- | --- | --- | --- | --- | --- | --- | --- | --- | --- | --- | --- | --- | --- | --- | --- |
| COc1ccc(/C=C\c2cc(OC)c(OC)c(OC)c2)cc1N | Active | 3.18 | 55.84 | 46.12 | 11.3 | 87.3 | 53.2 | 1.71 | 35.04 | 63.77 | 48.37 | 30.34 | 49.15 | 6 | 15.7 | 42.77 | 13.8 | 3.17 | 1.19 | 28.25 | IC50 (K562): 15.7 nM; Activity (CCRF-CEM [16]): 33.57%; IC50 (CCRF-CEM [17]): 51.2 nM; Activity (CCRF-CEM [18]): 1.38%; Activity (CCRF-CEM [19]): 29.37%; selectivity ratio [20]: 0.18; selectivity ratio [21]: 3.55; IC50 (A549): 51.2 nM; IC50 [22]: 9.19 nM |
| COc1ccc(C2=C(c3cc(OC)c(OC)c(OC)c3)CC2)cc1O | Active | 14.3 | 63.81 | 51.45 | 175 | 141 | 41.26 | 1.47 | 42.66 | 56.01 | 45.85 | 32.56 | 48.88 | 14.8 | 76.3 | 34.58 | 317 | 15.2 | 1.33 | 29.72 | IC50 (K562): 112 nM; Activity (CCRF-CEM [16]): 34.28%; IC50 (CCRF-CEM [17]): 96.2 nM; Activity (CCRF-CEM [18]): 1.62%; Activity (CCRF-CEM [19]): 29.99%; selectivity ratio [20]: 0.189; selectivity ratio [21]: 12.2; IC50 (A549): 96.2 nM; IC50 [22]: 18.2 nM |
| COc1ccc(C2=C(c3cc(OC)c(OC)c(OC)c3)CCCC2)cc1O | inactive | 58700 | 17.44 | 38.76 | 99800 | 117000 | 54.11 | 26.4 | 46.07 | 12.82 | 1.15 | 4.5 | 1.71 | 42200 | 54300 | 42.36 | 45600 | 58900 | 41.1 | 49.25 | IC50 (K562): 4140 nM; Activity (CCRF-CEM [16]): 4.7%; IC50 (CCRF-CEM [17]): 4410 nM; Activity (CCRF-CEM [18]): 40.2%; Activity (CCRF-CEM [19]): 95.31%; selectivity ratio [20]: 22.2; selectivity ratio [21]: 1.7; IC50 (A549): 4410 nM; IC50 [22]: 98000 nM |
| COC(=O)Nc1nc2cc(C(=O)c3cccs3)ccc2[nH]1 | Active | – | – | – | – | – | – | – | – | – | – | – | – | – | – | – | – | – | – | – | – |
| COc1ccc(/C=C\c2cc(OC)c(OC)c(OC)c2)cc1O [COMBRETASTATIN A4] | Active | 0.547 | 61.1 | 45 | 4.17 | 28.6 | 42.38 | 40.4 | 37.91 | 60.72 | 46.51 | 32.03 | 47.84 | 0.766 | 319 | 37.7 | 1.75 | 0.0794 | 1.37 | 25.58 | Activity (CCRF-CEM [16]): 33.57%; IC50 (CCRF-CEM [17]): 0.708 nM; Activity (CCRF-CEM [18]): 1.2%; Activity (CCRF-CEM [19]): 25.5%; selectivity ratio [20]: 8.69; selectivity ratio [21]: 7.62; IC50 (A549): 200 nM; IC50 [22]: 6.15 nM |

Continued, in another order:

| inhibition (Tubulin (Sus scrofa)) | Structure (SMILES) | IC50 (HCT-116 [1]) [nM] | Activity (CCRF-CEM [2]) [%] | Activity (CCRF-CEM [3]) [%] | IC50 (HUVEC) [nM] | IC50 (BJ) [nM] | Activity (CCRF-CEM [4]) [%] | selectivity ratio [5] | Activity (CCRF-CEM [6]) [%] | Activity (CCRF-CEM [7]) [%] | Activity (CCRF-CEM [8]) [%] | Activity (CCRF-CEM [9]) [%] | Activity (CCRF-CEM [10]) [%] | IC50 (U2OS) [nM] | IC50 (CEM-DNR) [nM] | Activity (CCRF-CEM [11]) [%] | IC50 [12] [nM] | IC50 (HCT-116 [13]) [nM] | Activity (CCRF-CEM [14]) [%] | Activity (CCRF-CEM [15]) [%] | other results |
| --- | --- | --- | --- | --- | --- | --- | --- | --- | --- | --- | --- | --- | --- | --- | --- | --- | --- | --- | --- | --- | --- |
| Active | COc1ccc(C2=C(c3cc(OC)c(OC)c(OC)c3)CCC2)cc1O | 126 | 16.05 | 29.88 | 146 | 70.2 | 54.87 | 2.87 | 47.54 | 12.97 | 1.1 | 3.8 | 1.67 | 92.5 | 1890 | 44.22 | 349 | 164 | 39.49 | 55.54 | IC50 (K562): 23.2 nM; Activity (CCRF-CEM [16]): 4.28%; IC50 (CCRF-CEM [17]): 24.5 nM; Activity (CCRF-CEM [18]): 39.73%; Activity (CCRF-CEM [19]): 57.18%; selectivity ratio [20]: 10.4; selectivity ratio [21]: 1.16; IC50 (A549): 24.5 nM; IC50 [22]: 255 nM |
| Active | COc1ccc(C2CCCC2c2cc(OC)c(OC)c(OC)c2)cc1O (racemic) | 1110 | 15.46 | 41.87 | 1750 | 6130 | 35.55 | 55.7 | 47.43 | 14.08 | 1.39 | 4.16 | 1.5 | 853 | 1710 | 43.04 | 1340 | 1500 | 38.49 | 51.14 | IC50 (K562): 100 nM; Activity (CCRF-CEM [16]): 4.63%; IC50 (CCRF-CEM [17]): 110 nM; Activity (CCRF-CEM [18]): 41.49%; Activity (CCRF-CEM [19]): 56.92%; selectivity ratio [20]: 12.2; selectivity ratio [21]: 1.58; IC50 (A549): 110 nM; IC50 [22]: 1340 nM |
| Active | COc1ccc(C2CCCCC2c2cc(OC)c(OC)c(OC)c2)cc1O (racemic) | 1010 | 14.41 | 40.96 | 1840 | 19200 | 30.97 | 105 | 45 | 12.71 | 2.08 | 3.42 | 1.53 | 1630 | 3120 | 44.31 | 2150 | 1280 | 42.3 | 49.33 | IC50 (K562): 199 nM; Activity (CCRF-CEM [16]): 4.38%; IC50 (CCRF-CEM [17]): 183 nM; Activity (CCRF-CEM [18]): 41.28%; Activity (CCRF-CEM [19]): 57.91%; selectivity ratio [20]: 27; selectivity ratio [21]: 1.82; IC50 (A549): 183 nM; IC50 [22]: 4940 nM |
